Results published in PMC6364417, “Kinase inhibitor library screening identifies synergistic drug combinations effective in sensitive and resistant melanoma cells” (Journal of Experimental & Clinical Cancer Research : CR, 2019).

Assays:
Test in all cases: Kinase inhibitor library screening, PrestoBlue cell viability, 1 or 10 μM, 72 h
[1] = system: A375-XP cells (Vemurafenib-resistant)
[2] = system: IGR37-GP cells (Dabrafenib-resistant)
[3] = system: A375-GP cells (Dabrafenib-resistant)
[4] = system: 501Mel-GP cells (Dabrafenib-resistant)
[5] = system: IGR37-XP cells (Vemurafenib-resistant)
[6] = system: 501Mel-XP cells (Vemurafenib-resistant)
[7] = system: 501Mel cells (parental)
How it was run: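 Values are % viability versus untreated wells, measured by PrestoBlue after a 72 h drug exposure. Screens covered the parental line plus sublines rendered resistant to Vemurafenib or Dabrafenib, each analysed in at least duplicate.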

[8] = system: A375 cells (parental)
[9] = system: IGR37 cells (parental)

Compound: Cc1nc(NC(=O)N2CCC[C@H]2C(N)=O)sc1-c1ccnc(C(C)(C)C(F)(F)F)c1 [BYL719]
- Cell viability in kinase inhibitor library screening, A375 XP, 1μΜ ([1]; A375 XP, 1μΜ, 72 h): 93.5
- Cell viability in kinase inhibitor library screening, A375 XP, 10μΜ ([1]; A375 XP, 10μΜ, 72 h): 62.9
- Cell viability in kinase inhibitor library screening, IGR37 GP, 10μΜ ([2]; IGR37 GP, 10μΜ, 72 h): 62.1%
- Cell viability in kinase inhibitor library screening, IGR37 GP, 1μΜ ([2]; IGR37 GP, 1μΜ, 72 h, in %): 90.5
- Cell viability in kinase inhibitor library screening, A375 GP, 1μΜ ([3]; A375 GP, 1μΜ, 72 h): 86.9
- Cell viability in kinase inhibitor library screening, A375 GP, 10μΜ ([3]; A375 GP, 10μΜ, 72 h): 52.5
- Cell viability in kinase inhibitor library screening, 501Mel GP, 10μΜ ([4]; 501Mel GP, 10μΜ, 72 h, in %): 62.2
- Cell viability in kinase inhibitor library screening, IGR37 XP, 10μΜ ([5]; IGR37 XP, 10μΜ, 72 h): 20.2%
- Cell viability in kinase inhibitor library screening, IGR37 XP, 1μΜ ([5]; IGR37 XP, 1μΜ, 72 h, in %): 80.6
- Cell viability in kinase inhibitor library screening, 501Mel XP, 1μΜ ([6]; 501Mel XP, 1μΜ, 72 h, in %): 90.3
- Cell viability in kinase inhibitor library screening, 501Mel XP, 10μΜ ([6]; 501Mel XP, 10μΜ, 72 h, in %): 56.3
- Cell viability in kinase inhibitor library screening, 501Mel Parental, 1μΜ ([7]; 501Mel Parental, 1μΜ, 72 h, in %): 99.0
- Cell viability in kinase inhibitor library screening, 501Mel Parental, 10μΜ ([7]; 501Mel Parental, 10μΜ, 72 h, in %): 90.7
- Cell viability in kinase inhibitor library screening, A375 Parental, 10μΜ ([8]; A375 Parental, 10μΜ, 72 h): 60.2
- Cell viability in kinase inhibitor library screening, A375 Parental, 1μΜ ([8]; A375 Parental, 1μΜ, 72 h): 93.2
- Cell viability in kinase inhibitor library screening, IGR37 Parental, 1μΜ ([9]; IGR37 Parental, 1μΜ, 72 h, in %): 99.1
- Cell viability in kinase inhibitor library screening, IGR37 Parental, 10μΜ ([9]; IGR37 Parental, 10μΜ, 72 h, in %): 77.8

Compound: CCN(CCO)CCCOc1ccc2c(Nc3cc(CC(=O)Nc4cccc(F)c4)[nH]n3)ncnc2c1 [Barasertib (AZD1152-HQPA)]
- cell viability (kinase inhibitor library screening) ([1]; A375 XP, 1μΜ, 72 h): 66.2%
- cell viability (kinase inhibitor library screening) ([1]; A375 XP, 10μΜ, 72 h): 68.8%
- cell viability (kinase inhibitor library screening) ([2]; IGR37 GP, 1μΜ, 72 h): 98.3%
- cell viability (kinase inhibitor library screening) ([2]; IGR37 GP, 10μΜ, 72 h): 91.0%
- cell viability (kinase inhibitor library screening) ([3]; A375 GP, 1μΜ, 72 h): 57.9%
- cell viability (kinase inhibitor library screening) ([3]; A375 GP, 10μΜ, 72 h): 61.1%
- cell viability (kinase inhibitor library screening) ([4]; 501Mel GP, 1μΜ, 72 h): 99.2%
- cell viability (kinase inhibitor library screening) ([4]; 501Mel GP, 10μΜ, 72 h): 86.2%
- cell viability (kinase inhibitor library screening) ([5]; IGR37 XP, 1μΜ, 72 h): 98.0%
- cell viability (kinase inhibitor library screening) ([5]; IGR37 XP, 10μΜ, 72 h): 51.5%
- cell viability (kinase inhibitor library screening) ([6]; 501Mel XP, 1μΜ, 72 h): 90.3%
- cell viability (kinase inhibitor library screening) ([6]; 501Mel XP, 10μΜ, 72 h): 81.8%
- cell viability (kinase inhibitor library screening) ([7]; 501Mel Parental, 1μΜ, 72 h): 96.3%
- cell viability (kinase inhibitor library screening) ([7]; 501Mel Parental, 10μΜ, 72 h): 92.5%
- cell viability (kinase inhibitor library screening) ([8]; A375 Parental, 10μΜ, 72 h): 59.0%
- cell viability (kinase inhibitor library screening) ([8]; A375 Parental, 1μΜ, 72 h): 59.4%
- cell viability (kinase inhibitor library screening) ([9]; IGR37 Parental, 1μΜ, 72 h): 93.5%
- cell viability (kinase inhibitor library screening) ([9]; IGR37 Parental, 10μΜ, 72 h): 81.6%

Compound: CCS(=O)(=O)N1CC(CC#N)(n2cc(-c3ncnc4[nH]ccc34)cn2)C1 [Baricitinib (LY3009104)]
- viability at 1 µM ([1]; Homo sapiens, A-375, 72 h, read-out: cell viability, A375 XP, 1μΜ): 105%
- viability at 10 µM ([1]; Homo sapiens, A-375, 72 h, read-out: cell viability, A375 XP, 10μΜ): 102%
- viability at 1 µM ([2]; Homo sapiens, IGR-37, 72 h, read-out: cell viability, IGR37 GP, 1μΜ): 92%
- viability at 10 µM ([2]; Homo sapiens, IGR-37, 72 h, read-out: cell viability, IGR37 GP, 10μΜ): 91.5%
- viability at 1 µM ([3]; Homo sapiens, A-375, 72 h, read-out: cell viability, A375 GP, 1μΜ): 106%
- viability at 10 µM ([3]; Homo sapiens, A-375, 72 h, read-out: cell viability, A375 GP, 10μΜ): 88.4%
- viability at 1 µM ([4]; Homo sapiens, 72 h, read-out: cell viability, 501Mel GP, 1μΜ): 104%
- viability at 10 µM ([4]; Homo sapiens, 72 h, read-out: cell viability, 501Mel GP, 10μΜ): 83.8%
- viability at 1 µM ([5]; Homo sapiens, IGR-37, 72 h, read-out: cell viability, IGR37 XP, 1μΜ): 96.5%
- viability at 10 µM ([5]; Homo sapiens, IGR-37, 72 h, read-out: cell viability, IGR37 XP, 10μΜ): 75.3%
- viability at 1 µM ([6]; Homo sapiens, 72 h, read-out: cell viability, 501Mel XP, 1μΜ): 98.5%
- viability at 10 µM ([6]; Homo sapiens, 72 h, read-out: cell viability, 501Mel XP, 10μΜ): 74.5%
- viability at 1 µM ([7]; Homo sapiens, 72 h, read-out: cell viability, 501Mel Parental, 1μΜ): 95%
- viability at 10 µM ([7]; Homo sapiens, 72 h, read-out: cell viability, 501Mel Parental, 10μΜ): 88.9%
- viability at 1 µM ([8]; Homo sapiens, A-375, 72 h, read-out: cell viability, A375 Parental, 1μΜ): 103%
- viability at 10 µM ([8]; Homo sapiens, A-375, 72 h, read-out: cell viability, A375 Parental, 10μΜ): 94.8%
- viability at 1 µM ([9]; Homo sapiens, IGR-37, 72 h, read-out: cell viability, IGR37 Parental, 1μΜ): 99.6%
- viability at 10 µM ([9]; Homo sapiens, IGR-37, 72 h, read-out: cell viability, IGR37 Parental, 10μΜ): 98.8%

Compound: COc1cc(Nc2c(C#N)cnc3cc(OCCCN4CCN(C)CC4)c(OC)cc23)c(Cl)cc1Cl [Bosutinib (SKI-606)]
- cell viability (kinase inhibitor library screening) ([1]; A375 XP, 1μΜ, in %): 83.7
- cell viability (kinase inhibitor library screening) ([1]; A375 XP, 10μΜ, in %): 30.5
- cell viability (kinase inhibitor library screening) ([2]; IGR37 GP, 1μΜ, in %): 95.0
- cell viability (kinase inhibitor library screening) ([2]; IGR37 GP, 10μΜ, in %): 20.7
- cell viability (kinase inhibitor library screening) ([3]; A375 GP, 1μΜ, in %): 85.6
- cell viability (kinase inhibitor library screening) ([3]; A375 GP, 10μΜ, in %): 32.7
- cell viability (kinase inhibitor library screening) ([4]; 501Mel GP, 1μΜ, in %): 91.9
- cell viability (kinase inhibitor library screening) ([4]; 501Mel GP, 10μΜ, in %): -0.266
- cell viability (kinase inhibitor library screening) ([5]; IGR37 XP, 1μΜ, in %): 98.8
- cell viability (kinase inhibitor library screening) ([5]; IGR37 XP, 10μΜ, in %): 4.2
- cell viability (kinase inhibitor library screening) ([6]; 501Mel XP, 1μΜ, in %): 103.1
- cell viability (kinase inhibitor library screening) ([6]; 501Mel XP, 10μΜ, in %): -0.2
- cell viability (kinase inhibitor library screening) ([7]; 501Mel Parental, 1μΜ, in %): 98.4
- cell viability (kinase inhibitor library screening) ([7]; 501Mel Parental, 10μΜ, in %): 0.645
- cell viability (kinase inhibitor library screening) ([8]; A375 Parental, 1μΜ, in %): 80.1
- cell viability (kinase inhibitor library screening) ([8]; A375 Parental, 10μΜ, in %): 39.3
- cell viability (kinase inhibitor library screening) ([9]; IGR37 Parental, 1μΜ, in %): 97.3
- cell viability (kinase inhibitor library screening) ([9]; IGR37 Parental, 10μΜ, in %): 1.8

Compound: Cc1cc2c(F)c(Oc3ncnn4cc(OC[C@@H](C)O)c(C)c34)ccc2[nH]1 [Brivanib (BMS-540215)]
- cell viability (kinase inhibitor library screening) ([1]; A375 XP, 1μΜ, in %): 104.1
- cell viability (kinase inhibitor library screening) ([1]; A375 XP, 10μΜ, in %): 89.7
- cell viability (kinase inhibitor library screening) ([2]; IGR37 GP, 10μΜ, in %): 95.2
- cell viability (kinase inhibitor library screening) ([3]; A375 GP, 1μΜ, in %): 103.4
- cell viability (kinase inhibitor library screening) ([3]; A375 GP, 10μΜ, in %): 79.9
- cell viability (kinase inhibitor library screening) ([4]; 501Mel GP, 1μΜ, in %): 106.3
- cell viability (kinase inhibitor library screening) ([4]; 501Mel GP, 10μΜ, in %): 89.6
- cell viability (kinase inhibitor library screening) ([5]; IGR37 XP, 1μΜ, in %): 107.9
- cell viability (kinase inhibitor library screening) ([5]; IGR37 XP, 10μΜ, in %): 73.1
- cell viability (kinase inhibitor library screening) ([6]; 501Mel XP, 1μΜ, in %): 100.3
- cell viability (kinase inhibitor library screening) ([6]; 501Mel XP, 10μΜ, in %): 80.7
- cell viability (kinase inhibitor library screening) ([7]; 501Mel Parental, 1μΜ, in %): 104.3
- cell viability (kinase inhibitor library screening) ([7]; 501Mel Parental, 10μΜ, in %): 93.4
- cell viability (kinase inhibitor library screening) ([8]; A375 Parental, 1μΜ, in %): 105.2
- cell viability (kinase inhibitor library screening) ([8]; A375 Parental, 10μΜ, in %): 84.3
- cell viability (kinase inhibitor library screening) ([9]; IGR37 Parental, 10μΜ, in %): 99.8

Compound: Cc1cc2c(F)c(Oc3ncnn4cc(OC[C@@H](C)OC(=O)[C@H](C)N)c(C)c34)ccc2[nH]1 [Brivanib alaninate (BMS-582664)]
- cell viability (kinase inhibitor library screening) ([1]; A375 XP, 1μΜ, in %): 105.2
- cell viability (kinase inhibitor library screening) ([1]; A375 XP, 10μΜ, in %): 81.3
- cell viability (kinase inhibitor library screening) ([2]; IGR37 GP, 1μΜ, in %): 99.8
- cell viability (kinase inhibitor library screening) ([2]; IGR37 GP, 10μΜ, in %): 95.3
- cell viability (kinase inhibitor library screening) ([3]; A375 GP, 1μΜ, in %): 98.8
- cell viability (kinase inhibitor library screening) ([3]; A375 GP, 10μΜ, in %): 80.1
- cell viability (kinase inhibitor library screening) ([4]; 501Mel GP, 1μΜ, in %): 107.2
- cell viability (kinase inhibitor library screening) ([4]; 501Mel GP, 10μΜ, in %): 88.2
- cell viability (kinase inhibitor library screening) ([5]; IGR37 XP, 1μΜ, in %): 99.9
- cell viability (kinase inhibitor library screening) ([5]; IGR37 XP, 10μΜ, in %): 74.9
- cell viability (kinase inhibitor library screening) ([6]; 501Mel XP, 1μΜ, in %): 97.0
- cell viability (kinase inhibitor library screening) ([6]; 501Mel XP, 10μΜ, in %): 83.1
- cell viability (kinase inhibitor library screening) ([7]; 501Mel Parental, 1μΜ, in %): 99.4
- cell viability (kinase inhibitor library screening) ([7]; 501Mel Parental, 10μΜ, in %): 91.7
- cell viability (kinase inhibitor library screening) ([8]; A375 Parental, 1μΜ, in %): 104.1
- cell viability (kinase inhibitor library screening) ([8]; A375 Parental, 10μΜ, in %): 82.8
- cell viability (kinase inhibitor library screening) ([9]; IGR37 Parental, 1μΜ, in %): 107.1
- cell viability (kinase inhibitor library screening) ([9]; IGR37 Parental, 10μΜ, in %): 96.2
